The values that follow are results of earlier work, collected in PubChem BioAssay AID1259409 (Chemical Carcinogenesis Research Information System (CCRIS), 2018).

In the series the test system is rodent chemically induced tumor inhibition, incidence and multiplicity. As to the kind of experiment: CCRIS tumor inhibitor studies.

Regarding `Oc1ccccc1`, the “tumour outcome (control, treated, inhibition, significance)” value is, setting by setting: (Carcinogen: BENZO[A]PYRENE, 50-32-8, Dose [Inhibitor]: 0.03 MMOL/G OF DIET STARTING 8 D BEFORE AND CONTINUING THROUGH 3 D AFTER LAST CARCINOGEN TREATMENT (STUDY DURATION: 148, Route [Inhibitor]: ORAL, Species: MOUSE, Strain/Sex: ICR/FEMALE, Target Tissue: Type of Lesion: FORESTOMACH: NEOPLASM, Dose [Carcinogen]: 1 MG IN 0.2 ML CORN OIL 2/WK FOR 4 WK, Promoter: NONE USED) 100%, 100%, 0%, not significant; (Carcinogen: BENZO[A]PYRENE, 50-32-8, Dose [Inhibitor]: 3 MG IN 0.1 ML ACETONE 3/WK ADMINISTERED SIMULTANEOUSLY WITH CARCINOGEN FOR DU RATION OF STUDY (STUDY DURATION: 368 D), Route [Inhibitor]: DERMAL, Species: MOUSE, Strain/Sex: ICR/FEMALE, Target Tissue: Type of Lesion: SKIN: PAPILLOMA, Dose [Carcinogen]: 5 UG IN 0.1 ML ACETONE 3/WK FOR DURATION OF STUDY, Promoter: NONE USED) 14/50 (28%), 7/50 (14%), 50%, not calculated; (Carcinogen: BENZO[A]PYRENE, 50-32-8, Dose [Inhibitor]: 3 MG IN 0.1 ML ACETONE 3/WK ADMINISTERED SIMULTANEOUSLY WITH CARCINOGEN FOR DURATION OF STUDY (STUDY DURATION: 368 D), Route [Inhibitor]: DERMAL, Species: MOUSE, Strain/Sex: ICR/FEMALE, Target Tissue: Type of Lesion: SKIN: SQUAMOUS CARCINOMA, Dose [Carcinogen]: 5 UG IN 0.1 ML ACETONE 3/WK FOR DURATION OF STUDY, Promoter: NONE USED) 10/50 (20%), 3/50 (6%), 70%, not calculated.

Turning to `C[C@H]1CCCC(=O)CCC/C=C/c2cc(O)cc(O)c2C(=O)O1`, the “tumour outcome (control, treated, inhibition, significance)” value (Carcinogen: 7,12-DIMETHYLBENZ[A]ANTHRACENE [57-97-6], Dose [Inhibitor]: 20 UG/L IN 0.05 ML PEANUT OIL 2X/WK FOR 2 WK BEGINNING AT 7 D OF AGE (STUDY DURATION: 24 WK), Route [Inhibitor]: SUBCUTANEOUS, Species: RAT, Strain/Sex: SPRAGUE-DAWLEY/FEMALE, Target Tissue: Type of Lesion: MAMMARY GLAND: TUMOR, Dose [Carcinogen]: 10 MG IN 1 ML PEANUT OIL ONCE AT 45 D OF AGE (STUDY DURATION: 24 WK), Promoter: NONE) is on record as 17/30 (57%), 9/30 (30%), 47%, p<0.018.

As to `CC1(C)O[C@@H]2C[C@H]3[C@@H]4C[C@H](F)C5=CC(=O)C=C[C@]5(C)[C@@]4(F)[C@@H](O)C[C@]3(C)[C@]2(C(=O)CO)O1`, the “tumour outcome (control, treated, inhibition, significance)” value runs as follows: (Carcinogen: 3-METHYLCHOLANTHRENE, 56-49-5, Dose [Inhibitor]: 1 UG IN ACETONE 2/WK FOR 23 WK BEGINNING 1 WK POST CARCINOGEN DOSE (STUDY DURATION: 24 WK), Route [Inhibitor]: DERMAL, Species: MOUSE, Strain/Sex: CD-1/MALE, Target Tissue: Type of Lesion: SKIN: TUMOR, Dose [Carcinogen]: 600 UG IN ACETONE ONCE, Promoter: NONE USED) 10%, 5%, 50%, not calculated; (Carcinogen: 3-METHYLCHOLANTHRENE, 56-49-5, Dose [Inhibitor]: 10 UG IN ACETONE 2/WK FOR 23 WK BEGINNING 1 WK POST CARCINOGEN DOSE (STUDY DURATION: 24 WK), Route [Inhibitor]: DERMAL, Species: MOUSE, Strain/Sex: CD-1/MALE, Target Tissue: Type of Lesion: SKIN: TUMOR, Dose [Carcinogen]: 600 UG IN ACETONE ONCE, Promoter: NONE USED) 10%, 45%, -350%, not calculated; (Carcinogen: 7,12-DIMETHYLBENZ[A]ANTHRACENE, 57-97-6, Dose [Inhibitor]: 0, 0.5 NMOL IN 200 µL ACETONE APPLIED 30 MIN PRIOR TO EACH PROMOTER DOSE 2/WK FOR 25 WK BEGINNING 1 WK POST CARCINOGEN D, Route [Inhibitor]: DERMAL, Species: MOUSE, Strain/Sex: CD-1/FEMALE, Target Tissue: Type of Lesion: SKIN: PAPILLOMA, Dose [Carcinogen]: 200 NMOL IN 200 µL ACETONE ONCE, Promoter: 12-O-TETRADECANOYLPHORBOL-13-ACETATE, 16561-29-8) 90%, 40%, 56%, not calculated; (Carcinogen: 7,12-DIMETHYLBENZ[A]ANTHRACENE, 57-97-6, Dose [Inhibitor]: 0, 0.5 NMOL IN 200 µL ACETONE APPLIED 30 MIN PRIOR TO EACH PROMOTER DOSE 2/WK FOR 25 WK BEGINNING 1 WK POST CARCINOGEN D, Route [Inhibitor]: DERMAL, Species: MOUSE, Strain/Sex: CD-1/FEMALE, Target Tissue: Type of Lesion: SKIN: PAPILLOMA, Dose [Carcinogen]: 200 NMOL IN 200 µL ACETONE ONCE, Promoter: MIREX, 2385-85-5) 100%, 97%, 3%, not significant; (Carcinogen: 7,12-DIMETHYLBENZ[A]ANTHRACENE, 57-97-6, Dose [Inhibitor]: 0, 2 NMOL IN 200 µL ACETONE APPLIED 30 MIN PRIOR TO EACH PROMOTER DOSE 2/WK FOR 25 WK BEGINNING 1 WK POST CARCINOGEN DOS, Route [Inhibitor]: DERMAL, Species: MOUSE, Strain/Sex: CD-1/FEMALE, Target Tissue: Type of Lesion: SKIN: PAPILLOMA, Dose [Carcinogen]: 200 NMOL IN 200 µL ACETONE ONCE, Promoter: 12-O-TETRADECANOYLPHORBOL-13-ACETATE, 16561-29-8) 90%, 11%, 88%, not calculated; (Carcinogen: 7,12-DIMETHYLBENZ[A]ANTHRACENE, 57-97-6, Dose [Inhibitor]: 0, 2 NMOL IN 200 µL ACETONE APPLIED 30 MIN PRIOR TO EACH PROMOTER DOSE 2/WK FOR 25 WK BEGINNING 1 WK POST CARCINOGEN DOS, Route [Inhibitor]: DERMAL, Species: MOUSE, Strain/Sex: CD-1/FEMALE, Target Tissue: Type of Lesion: SKIN: PAPILLOMA, Dose [Carcinogen]: 200 NMOL IN 200 µL ACETONE ONCE, Promoter: MIREX, 2385-85-5) 100%, 92%, 8%, not calculated.
